Measured values: patent publication US20240197814A1, “MATERIALS AND METHODS FOR THE PREVENTION AND TREATMENT OF VIRAL DISEASES” (priority 2021, published 2024)
Where two headings read alike, the source gives them in different places.

Tests used:
Format in all cases: cell-based
[1] = system: SARS-CoV-2 (2019-nCoV/USA-WA1/2020 strain); details: 60% confluent VERO E6, 48 h
[2] = system: SARS-CoV-2 (2019-nCoV/USA-WA1/2020 strain); details: VERO E6, 48 h
HIV-1 IIIB = assay: In vitro HIV-1 prevention model, TZM-bl-FcRI cells, β-galactosidase; details: TZM-bl-FcRI cells, 0.1, 0.25 and 1 μM peptide, 48 h
Experimental: Sixty-seven (67) compounds from a library of peptides included in TABLE 1 were evaluated for inhibition of HIV-1 IIIB in TZM-bl-FcRI cells. The compounds were tested at three (3) concentrations with six (6) replicates each for efficacy and toxicity for 48 hours in this model. Virus was diluted 1:128, based on a previous titration. The test article was dissolved in DMSO to generate a stock solution, and dosing solutions were prepared by dilution of the stock solution using the appropriate volume of PBS. These dosing solutions were mixed with predetermined volumes of the virus suspension, based on the titration data, and were incubated for 30 min at 37° C./5% CO2.
Following incubation, the virus/compound mixture was added to pre-plated TZM-bl-FcRI cells and the necessary volume of assay media (based on the titration). The culture was incubated for six hours under the above conditions and then washed to remove residual virus and compound. The cultures were incubated for an additional 48 hours at 37° C./5% CO2 before measuring β-galactosidase in the wells using a chemiluminescent endpoint.
The study was carried out using a 96-well format. The first row of 12 wells was used as a negative control (cells with no virus or test compound added). […] Peptide 346-001 served as a positive control on each plate, such that three other test compounds could be evaluated per plate. […]

[3] = system: SARS-CoV-2 (2019-nCoV/USA-WA1/2020 strain); details: 80% confluent VERO E6, 48 h

GSWLRDIWDWICEVLSDFK [Peptide 346-003]
dose response curve shape [1]: unexpected and unusual dose response curve shape

SWLRDIWDWICEVLSDFK [Peptide 346-001, virucidal amphipathic α-helical peptide derived from the hepatitis C virus (HCV) NS5A membrane anchor domain]
reduction on viral copy numbers ([2]; 50 μM dosing concentration): > 5 orders of magnitude
reduction on viral copy numbers ([2]; 125 μM dosing concentration): > 7 orders of magnitude
potency against SARS-CoV-2 infection [2]: high potency

Ac-SWLRDIWDWICEVLSDFKC(succinimido-propionylaminoethyl-mPEG2K)-NH2 (Ac-SWLRDIWDWICEVLSDFKC(succinimido‑propionylaminoethyl‑mPEG2K)-NH2) [Peptide 346-064]
potency against HIV-1 compared with peptide 346-001 (HIV-1 IIIB): increase in potency

SIWRDWVDLICEFLSDWK [Peptide 346-007]
dose-response relationship [3]: steep dose response relationship
potency relative to the other peptides tested [3]: ca. double
